One data set deals with MAb to peptide MBP64-78. The data set is described as follows: Positive antibody control of neutralization assay. The format is binding. How it is done: (§1) Constant amounts of anti-MBP (15 radioactivity binding units corresponding to 100 for scale expansion purposes=% 0) were incubated with increasing amounts of h-MBP (0-1000 ng) or individual peptides of MBP (0-10,000 ng) in a liquid phase assay and after 1.5 hours incubation, free anti-MBP levels were determined in all mixtures. Anti-MBP isolated from 7 individual MS patients or pooled anti-MBP from 10 different MS patients were used in neutralization experiments. […] One monoclonal antibody (MAb) to peptide MBP64-78 and a polyclonal rabbit antiserum to peptide MBP1-8 were used as positive antibody controls (Groome, N., Harland, J., and Dawkes, A., Neurochem Int 7:309-317, 1985; Barry, R., Payton, M., and Groome, N., Neurochem Int 2:291-300, 1991). Another mouse monoclonal antibody to epitope 45-50 was used as negative antibody control.
(§2) Anti-MBP levels were determined by a solid phase radioimmunoassay with human MBP (Warren, K. G. and Catz, I., Ann Neurol 209:20-25, 1986; Warren, K. G. and Catz, I., Ann Neurol 21:183-187, 1987; and Warren, K. G. and Catz, I., J Neurol Sci 91:143-151, 1989). Free anti-MBP levels were measured in all fractions from affinity chromatography and in all neutralization mixtures. All individual samples were run in quadruplicate using the same iodinated material in order to minimize between-assay variability.

The subject of data set [1] is anti-MBP purified from CSF of MS patients. The data set is described as follows: In vitro neutralization of purified anti-MBP (liquid phase assay, then solid phase radioimmunoassay). It is filed as binding, human. Particulars: for neutralization of purified anti-MBP: pooled anti-MBP from 10 MS patients, FIG. 2; for REACTIVITY WITH ANTI-MBP: purified anti-MBP, h-MBP 0-1000 ng, peptides 0-10,000 ng, 1.5 hours incubation.
Excerpt: Purified MBP was coupled to CNBr-activated Sepharose 4B (Pharmacia™) according to the manufacturer's instructions. Purified CSF IgG containing increased anti-MBP levels from 35 patients with acute MS relapses was used to isolate anti-MBP by MBP-Sepharose affinity chromatography (Warren, K. G. and Catz, I., J Neurol Sci 103:90-96, 1991). Purified anti-MBP samples were compared with the initial IgG source by poly-acrylamide gel electrophoresis. When purified anti-MBP samples were absorbed to zero with MBP, the post-absorption supernatants contained no residual IgG indicating the purity of anti-MBP.
Constant amounts of anti-MBP (15 radioactivity binding units corresponding to 100 for scale expansion purposes=% 0) were incubated with increasing amounts of h-MBP (0-1000 ng) or individual peptides of MBP (0-10,000 ng) in a liquid phase assay and after 1.5 hours incubation, free anti-MBP levels were determined in all mixtures. Anti-MBP isolated from 7 individual MS patients or pooled anti-MBP from 10 different MS patients were used in neutralization experiments. […] Another mouse monoclonal antibody to epitope 45-50 was used as negative antibody control.
as §2

Data set [2] has as its system polyclonal rabbit antiserum to peptide MBP1-8. Put plainly: Positive antibody control of neutralization assay. It is filed as binding. The protocol: as §1, §2
For data set [3], the system named is F and B anti-MBP purified from MS brain tissue. The data set is described as follows: Competitive inhibition assay with MBP decapeptides (epitope localization). It is filed as binding, human. To be noted: percent inhibition = 100 - radioactivity units, FIG. 10. How it is done: Prior to being assayed all CSF and/or tissue samples were diluted to a final IgG concentration of 0.010 g/l. F anti-MBP was detected directly in CSF or tissue extract while B levels of antibody were determined following acid hydrolysis of immune complexes with glycine HCl buffer pH 2.2. Non-specific binding was performed for each sample in uncoated wells. For epitope localization, synthetic peptides were firstly reacted with purified antibody in a liquid phase competitive assay and then anti-MBP was determined by radioimmunoassay in all resulting supernatants. Results of the combined competitive binding assay and radioimmunoassay were expressed as percent inhibition of synthetic peptide defined as 100—radioactivity units. Samples were done in 10 replicates and counted for 10 minutes each in a LKB1275 Minigamma counter. A pool of tissue-purified anti-MBP was used at 5 pre-established dilutions as positive controls. Pooled CSF from patients with non-neurological diseases was used as negative controls. Within assay reproducibility was between 3 and 5% and between assay variation was less than 7%.
The peptide(s) producing maximum inhibition were considered to be most highly associated with the antibody binding site.

Data set [4] concerns mouse monoclonal antibody to epitope 45-50. The data set is described as follows: Negative antibody control of neutralization assay. The format is binding. The protocol: as §1, §2

Where a SMILES comes first, the peptide text is derived from it. Where no end group is shown, it is not given here.

The values below come from patent US7368429B2, “Peptide specificity of anti-myelin basic protein and the administration of myelin basic protein peptides to multiple sclerosis patients” (The Governors of the University of Alberta, priority 1991, dated 2008).

As for `CC[C@H](C)[C@H](NC(=O)[C@H](CC(N)=O)NC(=O)[C@H](CCCCN)NC(=O)[C@H](Cc1ccccc1)NC(=O)[C@H](Cc1ccccc1)NC(=O)[C@H](Cc1c[nH]cn1)NC(=O)[C@@H](NC(=O)[C@@H](N)C(C)C)C(C)C)C(=O)N[C@H](C(=O)N[C@H](C(=O)O)[C@@H](C)O)C(C)C` [MBP86-95] (H-VVHFFKNIVT-OH; N-terminus and C-terminus assumed), in the data set “Solubility of peptides”, the “solubility in normal saline” value was “very low solubility”.

Regarding ARTAHYGSLPQKSHG [MBP64-78], in the data set with MAb to peptide MBP64-78, the “inhibition of MAb to peptide MBP64-78” value is listed as “inhibited”. Also, in data set [1], the “neutralization of purified anti-MBP” value is listed as “partially neutralized” and the “REACTIVITY WITH ANTI-MBP” value is recorded as “+”.

As for “MBP1-8: synthetic peptide of human MBP sequence 1-8 with unnatural cysteine residue (ASQKRPSQC)”, in data set [2], the “inhibition of antibody to peptide MBP1-8” value is “inhibited”. In data set [1], the “REACTIVITY WITH ANTI-MBP” value is “−”.

Regarding “MBP: Native human myelin basic protein isolated from non-MS brain tissue, 18.5 KD (ASQKRPSQRHGSKYLATASTMDHARHGFLPRHRDTG)”, the “neutralization of anti-MBP purified from individual patients” value in data set [1] (anti-MBP from 7 individual MS patients, FIG. 3) is “completely neutralized”. Further, in data set [1], the “neutralization of purified anti-MBP” value is reported as “completely neutralized” and the “REACTIVITY WITH ANTI-MBP” value is listed as “++”. Further, the “percent inhibition of F and B anti-MBP” value in data set [3] is 100%. The “reaction with MAb to MBP 45-50” value in data set [4] is given as “did not react”.
